Here are results for five compounds from EP1595536A1, “PHARMACEUTICALS COMPRISING SHIKONINS AS ACTIVE CONSTITUENT” (Beijing JBC Chinese Traditional Medicine Science and …, priority 2003, dated 2004).

In brackets after ≈: the same amount, converted by molar mass. Read-outs that look alike come from different tables or passages of the source.

One data set concerns red trichophyton. Put plainly: In vitro antifungal test. In kind it is cell-based.
For a further data set, the system named is Lewis lung cancer. The data set is described as follows: Animal test of tumor restraint. In kind it is in vivo.
A further data set has as its system W256. The data set is described as follows: Animal test of tumor restraint. In kind it is in vivo.
For a further data set, the system named is pneumobacillus. Put plainly: Drug sensitivity test (MIC).
Another data set relates to stenotrophomonas bacilli. The data set is described as follows: Drug sensitivity test (MIC).
The next data set has as its system Helicobacter pylori. The data set is described as follows: Drug sensitivity test (MIC).
The test system of data set [1] is Gram-positive staphylococcus aureus. Put plainly: Drug sensitivity test (MIC).
A further data set deals with bacteroides fragilis. Put plainly: Drug sensitivity test (MIC).
The next data set has as its system S180. The data set is described as follows: Animal test of tumor restraint. The class given is in vivo.
A further data set deals with mycoplasma pneumoniae. The data set is described as follows: Bacteriostatic effect on mycoplasma.
Another data set relates to L1210. The data set is described as follows: Animal test of tumor restraint. The class given is in vivo.
Another data set relates to cryptococcus neoformans. The data set is described as follows: In vitro antifungal test. The class given is cell-based.
Data set [2] has as its system Ascitic tyre liver cancer. The data set is described as follows: Animal test of tumor restraint. In kind it is in vivo.
For a further data set, the system named is dermatophyte. Put plainly: In vitro antifungal test. The class given is cell-based.
For a further data set, the system named is Candida albicans. Put plainly: Comparative MIC experiment, Zicao extract vs Shikonin compounds.
The subject of another data set is Bacteroid. The data set is described as above. The class given is cell-based.
The subject of a further data set is candida and cryptococcus. The data set is described as follows: In vitro antifungal test. The class given is cell-based.
Data set [3] has as its system aspergillus fumigatus, cryptococcus and red trichophyton. The data set is described as follows: In vitro antifungal test. In kind it is cell-based.
In data set [4] the test system is Staphylococcus epidermidis. Put plainly: Comparative MIC experiment, Zicao extract vs Shikonin compounds.
For a further data set, the system named is Pseudallescheria boydii. The data set is described as follows: In vitro antifungal test. The conditions noted are these: Scedosporium boydii. In kind it is cell-based.
A further data set concerns C.krusei. The data set is described as follows: In vitro antifungal test. The class given is cell-based. The conditions noted are these: Pichia kudriavzevii.
A further data set concerns DHBV. The data set is described as follows: Virus restraint in DHBV-infected duck. The class given is in vivo. To be noted: oral, 100mg/kg twice a day, 10 days.
For the next data set, the system named is Serratia marcescens. Put plainly: Comparative MIC experiment, Zicao extract vs Shikonin compounds.
[5] abbreviates: stenotrophomonas bacilli, stated as especially effective, compared with berberine.
The mark [6] stands for this setting: Gram-positive staphylococcus aureus.
Setting [7] is: bacteroid, especially bacteroides fragilis.

For the compound `CC(=O)O[C@H](CC=C(C)C)C1=CC(=O)c2c(O)ccc(O)c2C1=O` [Acetylshikonin], the MIC (usually the least concentration at which growth counts as inhibited) with red trichophyton is 0.9062- 62.5 ¦Ìg/ml; against pneumobacillus, 0.391-6.25 ì g/ml; against pneumobacillus (some bacterial strains) it was 12.5-50 ì g/ml; in the data set on stenotrophomonas bacilli (setting [5]) it was 0.391-0.781 ì g/ml; in the data set with Helicobacter pylori, 0.391 - 0.781 ì g/ml; in data set [1] (setting [6]), 0.391-12.5 ì g/ml. Also, the MIC was 0.391-6.25 ì g/ml in the data set on bacteroides fragilis (setting [7]), 7.819 ì g/ml against mycoplasma pneumoniae (mycoplasma pneumoniae) and 3.906 ¦Ìg/ml with cryptococcus neoformans. The Tumor inhibitory rate in the data set with Lewis lung cancer is on record as 52.6%; with W256, 77%; in the data set on S180, 35.7%; in data set [2] it was 47.8%. In addition, the Life prolonged rate turned out to be 128% in the data set with L1210 and 112.6% in data set [2].
`OC(Cn1cncn1)(Cn1cncn1)c1ccc(F)cc1F` [fluconazole, reference compound]: in the data set with dermatophyte, the MIC lay in the range of 32 to 64 µg/mL (≈ 104 to 209 µM); the MIC90 (as a rule, an inhibitory concentration at the 90% level, which refers to growth in some studies and to a panel of isolates in others) was found to be 64 µg/mL (≈ 209 µM).
As to `CC(C)=CCC(OC(=O)C=C(C)C)C1=CC(=O)c2c(O)ccc(O)c2C1=O` (stereo not drawn), the MIC is 3.91 µg/mL (≈ 10.5 µM) in the data set with Candida albicans; 0.391 µg/mL (≈ 1.06 µM) with Bacteroid; 0.391 to 6.25 µg/mL (≈ 1.06 to 16.9 µM) in the data set on pneumobacillus; 12.5 to 50 µg/mL (≈ 33.7 to 135 µM) in the data set with pneumobacillus (some bacterial strains); 2.08 to 33.3 µg/mL (≈ 5.62 to 89.9 µM) against candida and cryptococcus; 3.06 to 250 µg/mL (≈ 8.27 to 675 µM) in data set [3]. Besides, the MIC in the data set on stenotrophomonas bacilli (Stenotrophomonas) is 0.391 to 0.781 µg/mL (≈ 1.06 to 2.11 µM); against Helicobacter pylori, 0.391 to 0.781 µg/mL (≈ 1.06 to 2.11 µM); in data set [1] (Staphylococcus aureus) it was 0.391 to 12.5 µg/mL (≈ 1.06 to 33.7 µM); in the data set on bacteroides fragilis (Bacteroides fragilis) it was 0.391 to 6.25 µg/mL (≈ 1.06 to 16.9 µM); in [4] it was 0.391 µg/mL (≈ 1.06 µM); against Pseudallescheria boydii, 4.16 to 8.32 µg/mL (≈ 11.2 to 22.5 µM). The MIC was 2 µg/mL (≈ 5.4 µM) against mycoplasma pneumoniae (Mycoplasma), 8.32 to 16.6 µg/mL (≈ 22.5 to 44.8 µM) against C.krusei, 4.16 to 8.32 µg/mL (≈ 11.2 to 22.5 µM) in the data set on dermatophyte and 0.781 µg/mL (≈ 2.11 µM) against Serratia marcescens. In addition, the Tumor inhibitory rate in the data set with Lewis lung cancer turned out to be 42.8%; with S180, 9.63%. Also, the MIC90 amounted to 33.3 µg/mL (≈ 89.9 µM) against candida and cryptococcus; 4.16 µg/mL (≈ 11.2 µM) against dermatophyte. For the same compound, in the data set on DHBV, the toxic reaction result is given as “without toxic reaction”. Besides, in [2], the Life prolonged rate came out at 113.4%.
`COc1ccc2cc3[n+](cc2c1OC)CCc1cc2c(cc1-3)OCO2` [berberine, reference compound]: the MIC in the data set on stenotrophomonas bacilli (Stenotrophomonas) lay in the range of 8 to 32 µg/mL.
Take `CC(C)=CC[C@@H](O)C1=CC(=O)c2c(O)ccc(O)c2C1=O` [Shikonin]: the MIC is on record as 0.391-6.25 ì g/ml in the data set with pneumobacillus; 12.5-50 ì g/ml against pneumobacillus (some bacterial strains); 0.391-0.781 ì g/ml against stenotrophomonas bacilli (setting [5]); 0.391 - 0.781 ì g/ml in the data set on Helicobacter pylori; 0.391-12.5 ì g/ml in data set [1] (setting [6]); 0.391-6.25 ì g/ml against bacteroides fragilis (setting [7]). The MIC in the data set with mycoplasma pneumoniae (mycoplasma pneumoniae) is recorded as 3.751 ì g/ml. The same compound had a Life prolonged rate in data set [2] of 130.8%.
